# Assay results: patent US7547783B2, “Transition metal complexes” (Shell Oil Company, priority 2004, dated 2009)
# Experiment: practical solubility of the transition metal complexes at ambient temperature
# Conditions: not given
# Procedure: The practical solubility of the transition metal complexes was determined at ambient temperature in the inert atmosphere of the dry box.
# 1 mg of solid complex was contacted with 0.5 ml of benzene-D6 in an NMR-tube (5 mm external diameter) and gently swirled.
SMILES,solubility in toluene or benzene-D6,solubility in C6D6 (in words)
"CCCCCCCCCCCCCCCCCCCCOc1c(-c2ccccc2)cc(N=C(C)c2cccc(C(C)=Nc3cc(-c4ccccc4)c(OCCCCCCCCCCCCCCCCCCCC)c(-c4ccccc4)c3)n2)cc1-c1ccccc1.[Cl-].[Cl-].[Cl-].[Cr+3] [Example 9, 2,6-bis[1-(4-eicosanoxy-3,5-diphenylphenylimino)ethyl]pyridine chromium[III] trichloride complex]",ca. 50 mg/ml,–
"CCCCCCCCCCCCCCCCCCCCOc1cc(C)c([N+]2=C(C)c3cccc4[n+]3[Fe]2([Cl])([Cl])[N+](c2cc(C(C)C)c(OCCCCCCCCCCCCCCCCCCCC)cc2C)=C4C)cc1C(C)C [Example 12, 2,6-bis[1-(2-methyl-4-eicosanoxy-5-isopropylphenylimino)ethyl]pyridine iron (II) dichloride]",–,soluble

# Same assay, conditions: 20 °C, organic solvent or mixture, thermodynamic from solid
row,SMILES,solubility at 24 h [mg/mL]
1,"CC1=[N+](c2cc(C(C)(C)C)cc(C(C)(C)C)c2)[Fe]2([Cl])([Cl])[N+](c3c(C)cc(C)cc3C)=C(C)c3cccc1[n+]32 [Example 2, 2-[1-(2,4,6-trimethylphenylimino)ethyl]-6-[1-(3,5-di-tert-butylphenylimino)ethyl]pyridine iron[II] chloride complex, reference compound]",< 1
2,"CCCCCCCCCCCCCCCCCCCCOc1c(-c2ccccc2)cc([N+]2=C(C)c3cccc4[n+]3[Fe]2([Cl])([Cl])[N+](c2c(C)cc(C)cc2C)=C4C)cc1-c1ccccc1 [Example 3, 2-[1-(2,4,6-trimethylphenylimino)ethyl]-6-[1-(4-eicosanoxy-3,5-diphenylphenylimino)ethyl]pyridine iron[II] dichloride complex]",~50
3,"CCCCCCCCCCCCCCCCCCCCOc1c(-c2ccccc2)cc([N+]2=C(C)c3cccc4[n+]3[Co]2([Cl])([Cl])[N+](c2c(C)cc(C)cc2C)=C4C)cc1-c1ccccc1 [Example 4, 2-[1-(2,4,6-trimethylphenylimino)ethyl]-6-[1-(4-eicosanoxy-3,5-diphenylphenylimino)ethyl]pyridine cobalt[II] dichloride complex]",50
4,"CCCCCCCCCCCCCCCCCCCCOc1c(-c2ccccc2)cc([N+]2=C(C)c3cccc4[n+]3[Fe]2([Cl])([Cl])[N+](c2cc(-c3ccccc3)c(OCCCCCCCCCCCCCCCCCCCC)c(-c3ccccc3)c2)=C4C)cc1-c1ccccc1 [Example 7, 2,6-bis[1-(4-eicosanoxy-3,5-diphenylphenylimino)ethyl]pyridine iron [II] dichloride complex]",~100
5,"CCCCCCCCCCCCCCCCCCCCOc1c(-c2ccccc2)cc([N+]2=C(C)c3cccc4[n+]3[Co]2([Cl])([Cl])[N+](c2cc(-c3ccccc3)c(OCCCCCCCCCCCCCCCCCCCC)c(-c3ccccc3)c2)=C4C)cc1-c1ccccc1 [Example 8, 2,6-bis[1-(4-eicosanoxy-3,5-diphenylphenylimino)ethyl]pyridine cobalt[II] dichloride complex]",~100
6,"CCCCCCCCCCCCCCCCCCCCOc1c(-c2ccccc2)cc([N+]2=C(C)c3cccc4[n+]3[Co]2([Cl])([Cl])[N+](c2ccccc2C(C)(C)C)=C4C)cc1-c1ccccc1 [Example 10, 2-[1-(2-tert-butylphenylimino)ethyl]-6-[1-(4-eicosanoxy-3,5-diphenylphenylimino)ethyl]pyridine cobalt[II] chloride complex]",~50
7,"CCCCCCCCCCCCCCCCCCCCOc1ccc([N+]2=C(C)c3cccc4[n+]3[Fe]2([Cl])([Cl])[N+](c2ccc(OCCCCCCCCCCCCCCCCCCCC)cc2C)=C4C)c(C)c1 [Example 11, 2,6-bis[1-(4-eicosanoxy-2-methylphenylimino)ethyl]pyridine iron[II] chloride complex, reference compound]",< 1
8,"CCCCCCCCCCCCCCCCCCCCOc1cc(C)c([N+]2=C(C)c3cccc4[n+]3[Fe]2([Cl])([Cl])[N+](c2cc(C(C)C)c(OCCCCCCCCCCCCCCCCCCCC)cc2C)=C4C)cc1C(C)C [Example 12, 2,6-bis[1-(2-methyl-4-eicosanoxy-5-isopropylphenylimino)ethyl]pyridine iron (II) dichloride]",~10
9,"CCCOc1c(-c2ccccc2)cc([N+]2=C(C)c3cccc4[n+]3[Co]2([Cl])([Cl])[N+](c2c(C)cc(C)cc2C)=C4C)cc1-c1ccccc1 [Example 13, 2-[1-(2,4,6-trimethylphenylimino)ethyl]-6-[1-(4-propoxy-3,5-diphenylphenylimino)ethyl]pyridine cobalt[II] chloride complex, reference compound]",< 1
10,"CC1=[N+](c2cc(-c3ccccc3)c(O)c(-c3ccccc3)c2)[Fe]2([Cl])([Cl])[N+](c3c(C)cc(C)cc3C)=C(C)c3cccc1[n+]32 [Example 14, 2-[1-(2,4,6-trimethylphenylimino)ethyl]-6-[1-(4-hydroxy-3,5-diphenylphenylimino)ethyl]pyridine iron (II) dichloride, reference compound]",< 1

# Same assay, conditions: at 20° C.
row,SMILES,solubility in toluene or benzene-D6
1,"CCCCCCCCCCCCCCCCCCCCOc1c(-c2ccccc2)cc(N=C(C)c2cccc(C(C)=Nc3c(C)cc(C)cc3C)n2)cc1-c1ccccc1.FC(F)(F)c1cc([B-](c2cc(C(F)(F)F)cc(C(F)(F)F)c2)(c2cc(C(F)(F)F)cc(C(F)(F)F)c2)c2cc(C(F)(F)F)cc(C(F)(F)F)c2)cc(C(F)(F)F)c1.[Cl][Co+] [Example 5, 2-[1-(2,4,6-trimethylphenylimino)ethyl]-6-[1-(4-eicosanoxy-3,5-diphenylphenylimino)ethyl]pyridine cobalt[II] chloride tetrakis[3,5-bis[trifluoromethyl)phenyl]borate]",ca. 10 mg/ml
2,"CCCCCCCCCCCCCCCCCCCCOc1c(-c2ccccc2)cc(N=C(C)c2cccc(C(C)=Nc3c(C)cc(C)cc3C)n2)cc1-c1ccccc1.[Cl-].[Cl-].[Cl-].[Cr+3] [Example 6, 2-[1-(2,4,6-trimethylphenylimino)ethyl]-6-[1-(4-eicosanoxy-3,5-diphenylphenylimino)ethyl]pyridine chromium[III] trichloride complex]",ca. 1 mg/ml
